Like-named read-outs stand apart in the source and are kept apart here.
Legend:
Assay in all cases: MIC of compounds alone, broth microdilution
Type in all cases: cell-based
K. oxytoca = details: Klebsiella oxytoca
Procedure: (§1) Method 2: MIC of Compounds and Synergy with Ceftazidime Against Bacterial Isolates (Table 2 and 3)
(§2) Compounds of the present invention were assessed against genotyped bacterial strains alone or in combination with the β-lactam ceftazidime. In the assays, MICs of said compounds, or of ceftazidime at fixed concentrations of said compounds were determined by the broth microdilution method according to the Clinical Laboratory Standards Institute (CLSI—M7-A7). Briefly, compounds alone according to the invention were prepared in DMSO and spotted (2 μL each) on sterile polystyrene plates (Corning, 3788). Compounds and ceftazidime dilutions were prepared in DMSO and spotted (1 μL each) on sterile polystyrene plates (Corning, 3788). Log phase bacterial suspensions were adjusted to a final density of 5×10^5 cfu/mL in cation-adjusted Mueller-Hinton broth (Beckton-Dickinson) and added to each well (98 μL). Microplates were incubated for 16-20 h at 35° C. in ambient air. The MIC of the compounds was defined as the lowest concentration of said compounds that prevented bacterial growth as read by visual inspection. The MIC of ceftazidime at each compound concentration was defined as the lowest concentration of ceftazidime that prevented bacterial growth as read by visual inspection.

S. marcescens = details: Serratia marcescens, SMA UFR30, beta-lactamases OXA-405
Procedure: as §1, §2

C. freundii = details: Citrobacter freundii
Procedure: as §1, §2

M. morganii = details: Morganella morganii, MMO 200321, beta-lactamases TEM-1, CTX-M-15 OXA-1
Procedure: as §1, §2

E. aerogenes = details: Klebsiella aerogenes
Procedure: as §1, §2

C. murliniae = tested on: C. murliniae
Procedure: as §1, §2

K. pneumoniae = details: Klebsiella pneumoniae
Procedure: as §1, §2

E. cloacae = details: Enterobacter cloacae
Procedure: as §1, §2

P. aeruginosa = details: Pseudomonas aeruginosa
Procedure: as §1, §2

E. coli = details: Escherichia coli
Procedure: as §1, §2

P. mirabilis = details: Proteus mirabilis, PMI UFR82, beta-lactamases CMY-2
Procedure: as §1, §2

Measured: MIC

CC(C)(O/N=C(\C(=O)N[C@@H]1C(=O)N2C(C(=O)[O-])=C(C[n+]3ccccc3)CS[C@H]12)c1csc(N)n1)C(=O)O [CAZ, ceftazidime, reference compound]
> 128 mg/L: C. freundii | C. murliniae | K. pneumoniae; alone, KPN 131119, beta-lactamases TEM-1, SHV-11, CTX-M-15 OXA-1 OXA-48 | K. pneumoniae; alone, KPN 190128, beta-lactamases TEM-1, SHV-32, CTX-M-15 OXA-1 | K. pneumoniae; alone, KPN 190270, beta-lactamases TEM-1, SHV-76, CTX-M-15 OXA-1 | K. pneumoniae; alone, KPN 190425, beta-lactamases TEM-1, SHV-1, CTX-M-15 OXA-1 | K. pneumoniae; alone, KPN 260251, beta-lactamases TEM-1, SHV-11, SHV-12, CTX-M-15 KPC-2 | K. pneumoniae; alone, KPN 260252, beta-lactamases TEM-1, SHV-11 KPC-3 | K. pneumoniae; alone, KPN 6122012, beta-lactamases SHV-1 NDM-1 | K. pneumoniae; alone, KPN ARA, beta-lactamases TEM-1, SHV-11, CTX-M-15 OXA-1 OXA-48 | K. pneumoniae; alone, KPN UFR24, beta-lactamases TEM-1, SHV-2, SHV-11 OXA-1 OXA-48 OXA-47 | K. pneumoniae; alone, KPN UFR27, beta-lactamases TEM-1, SHV-28, CTX-M-15 OXA-204 | K. pneumoniae; alone, KPN UFR42, beta-lactamases SHV-2, CTX-M-15 OXA-1 OXA-181 NDM-1 | K. pneumoniae; alone, KPN UFR43, beta-lactamases SHV-11, CTX-M-15 CMY-2 OXA-1 NDM-1 | K. pneumoniae; alone, KPN UFR53, beta-lactamases TEM-1 IMP-1 | K. pneumoniae; alone, KPN UFR66, beta-lactamases TEM-1, SHV-11, CTX-M-15 KPC-2 | K. pneumoniae; alone, KPN UFR68, beta-lactamases TEM-1, SHV-11, CTX-M-15 KPC-3 | E. cloacae; ECL 190310, beta-lactamases AmpC | E. cloacae; ECL 200138, beta-lactamases AmpC | E. cloacae; ECL 200322, beta-lactamases TEM-1, CTX-M-15 OXA-1 | E. cloacae; ECL 260033, beta-lactamases AmpC | E. cloacae; ECL 260253, beta-lactamases TEM-1 KPC-3 | E. cloacae; ECL 260323, beta-lactamases AmpC | E. cloacae; ECL HAN, beta-lactamases OXA-35 | E. cloacae; ECL NEM146383, beta-lactamases AmpC | E. cloacae; ECL UFR13, beta-lactamases TEM-1, SHV-12, CTX-M-9 OXA-48 | E. cloacae; ECL UFR14, beta-lactamases TEM-1, SHV-12, CTX-M-15 DHA-1 OXA-1 OXA-48 | E. cloacae; ECL UFR38, beta-lactamases CTX-M-15 NDM-1 | E. cloacae; ECL UFR51, beta-lactamases SHV-12 IMP-8 | E. cloacae; ECL UFR60, beta-lactamases TEM-1, CTX-M-15 KPC-2 | E. cloacae; ECL UFR70, beta-lactamases TEM-1, CTX-M-15 CMY-2 OXA-1 | E. cloacae; ECL UFR84, beta-lactamases TEM-1 AmpC OXA-1 | E. cloacae; ECL UFR85, beta-lactamases TEM-1, CTX-M-15 AmpC | E. coli; ECO UFR17, beta-lactamases TEM-1, CTX-M-15 CMY-2 OXA-1 OXA-181 | E. coli; ECO UFR18, beta-lactamases CTX-M-15 OXA-204 | E. coli; ECO UFR32, beta-lactamases TEM-1, VEB-1 OXA-10 | E. coli; ECO UFR39, beta-lactamases CTX-M-15 NDM-1 | E. coli; ECO UFR41, beta-lactamases TEM-1, CTX-M-15 CMY-2 OXA-1 NDM-4 | E. coli; ECO UFR52, beta-lactamases TEM-1, SHV-12 IMP-8
8 mg/L: C. freundii; alone, CFR UFR11, beta-lactamases TEM-1 OXA-1 OXA-48, read-out: MIC | E. coli; ECO 190314, beta-lactamases CTX-M-1, read-out: MIC | E. coli; ECO 190549, beta-lactamases CTX-M-1, read-out: MIC
4 mg/L: E. coli; ECO 200259, beta-lactamases CTX-M-14, read-out: MIC | P. mirabilis
0.25 mg/L: K. pneumoniae; alone, KPN LIB, beta-lactamases SHV-11 OXA-48, read-out: MIC
128 mg/L: K. oxytoca | E. aerogenes | K. pneumoniae; alone, KPN 110376, beta-lactamases TEM-1, SHV-1, CTX-M-15 OXA-1 OXA-48 | K. pneumoniae; alone, KPN 160143, beta-lactamases TEM-1, SHV-1, CTX-M-15 KPC-2 OXA-1 | K. pneumoniae; alone, KPN 200047, beta-lactamases TEM-1, SHV-32, CTX-M-15 OXA-1 | K. pneumoniae; alone, KPN 260376, beta-lactamases SHV-1, SHV-49 OXA-1 | K. pneumoniae; alone, KPN 270077, beta-lactamases TEM-1, SHV-1, CTX-M-15 | K. pneumoniae; alone, KPN UFR25, beta-lactamases TEM-1, SHV-11, CTX-M-15 OXA-162 | K. pneumoniae; alone, KPN UFR28, beta-lactamases TEM-1, SHV-1, CTX-M-15 OXA-1 OXA-232 | K. pneumoniae; alone, KPN UFR65, beta-lactamases TEM-1, SHV-11 KPC-2 | K. pneumoniae; alone, KPN UFR81, beta-lactamases TEM-1, SHV-1 DHA-1 OXA-48 | E. cloacae; ECL 2185D, beta-lactamases OXA-163 | E. cloacae; ECL 190408, beta-lactamases TEM-1, CTX-M-15 OXA-1 | E. cloacae; ECL P99, beta-lactamases AmpC | P. aeruginosa | E. coli; ECO 190317, beta-lactamases TEM-1, SHV-12, CTX-M-15 OXA-1 | E. coli; ECO 260096, beta-lactamases CTX-M-132 | E. coli; ECO 260508, beta-lactamases TEM-1, CTX-M-15 OXA-1 | E. coli; ECO UFR19, beta-lactamases CTX-M-15 CMY-2 OXA-1 OXA-204 | E. coli; ECO UFR61O, beta-lactamases TEM-1 KPC-2 | E. coli; ECO UFR74, beta-lactamases SHV-1 DHA-1
32 mg/L: K. pneumoniae; alone, KPN 200327, beta-lactamases TEM-1, SHV-1, CTX-M-15 OXA-1, read-out: MIC | K. pneumoniae; alone, KPN UFR79, beta-lactamases DHA-1 OXA-1, read-out: MIC
2 mg/L: K. pneumoniae; alone, KPN UFR22_O, beta-lactamases TEM-1, SHV-1 OXA-48, read-out: MIC | E. cloacae; ECL UFR12, beta-lactamases CTX-M-9 OXA-48, read-out: MIC | E. coli; ECO 200159, beta-lactamases TEM-1, CTX-M-14, read-out: MIC | E. coli; ECO UFR45, beta-lactamases TEM-1 CMY-4 OXA-1 OXA-48 VIM-1, read-out: MIC
256 mg/L: K. pneumoniae; BAA1898, alone, KPN BAA-1898, beta-lactamases TEM-1, SHV-11, SHV-12 KPC-2 | K. pneumoniae; alone, KPN 6299, beta-lactamases TEM-1, SHV-11 OXA-163 | P. aeruginosa; CIP107051
16 mg/L: S. marcescens | M. morganii | E. coli; ECO 190457, beta-lactamases CTX-M-15 OXA-1, read-out: MIC | E. coli; ECO 200344, beta-lactamases CTX-M-1, read-out: MIC | E. coli; ECO 260304, beta-lactamases CTX-M-15, read-out: MIC | E. coli; ECO UFR62, beta-lactamases TEM-1, CTX-M-9 KPC-2, read-out: MIC
64 mg/L: C. freundii; alone, CFR UFR10, beta-lactamases OXA-48, read-out: MIC | K. pneumoniae; alone, KPN 190551, beta-lactamases TEM-1, SHV-1, CTX-M-15 OXA-1, read-out: MIC | K. pneumoniae; alone, KPN 700603, beta-lactamases SHV-18 OXA-2, read-out: MIC | K. pneumoniae; alone, KPN UFR77, beta-lactamases CMY-2, read-out: MIC | E. cloacae; ECL 260508, beta-lactamases TEM-1, CTX-M-15, read-out: MIC | E. coli; ECO 180070, beta-lactamases TEM-1, CTX-M-15, read-out: MIC | E. coli; ECO UFR16, beta-lactamases TEM-1, CTX-M-15 OXA-1 OXA-48, read-out: MIC
0.5 mg/L: K. pneumoniae; alone, KPN UFR80, beta-lactamases SHV-11 DHA-1 OXA-1, read-out: MIC

— patent US10842779B2, “Heterocyclic compounds and their use in preventing or treating bacterial infections” (priority 2015, dated 2020)
